Data from PubChem BioAssay AID2060885 (Molecular Pharmacology Branch, DTP, NCI, 2025).

Tested on: NCI-H23 complex spheroids with HUVEC/MSC, viability
Test: Anticancer human tumor NCI-H23 cell line growth inhibition [RAS];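 for viability, T/C: 100% = DMSO vehicle control viability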
Settings: for IC50: curve of first compound; for viability, T/C: stronger effect = lower value
From the text: RAS pathway inhibitors in Combinations in Complex Spheroids
A high-throughput screen of multi-cell type tumor spheroids was designed to identify active combinations of RAS pathway inhibitors and targeted small molecules. Complex spheroids include a stromal component modeled by human endothelial cells (HUVEC) and fibroblasts modeled by human mesenchymal stem cells (MSCs). The concentration ranges selected for each drug and investigational agent were based upon clinically achievable concentrations if the clinical Cmax of the agent was known.
Compounds. The drugs and investigational agents: abemaciclib (NSC768073), cobimetinib (NSC768068), divarasib (GDC6063, NSC841802), docetaxel (NSC628503), GDC-1971 (RLY-1971, NSC841576), gemcitabine (NSC613327), inavolisib (NSC800729), ipatasertib (NSC767898), KB-0742 (NSC834161), MRTX-1133 (NSC836407), osimertinib (NSC779217), RMC-4630 (NSC839698), RMC-6236 (NSC851965), RMC-6291 (NSC852671), Ro-3306 (NSC812927), sapanisertib (NSC764658), SN-38 (NSC673596), staurosporine (NSC755774), SY5609 (NSC837396), and tovorafenib (DAY101, NSC766906), were obtained from the National Cancer Institute (NCI) Developmental Therapeutics Program Chemical Repository. The FDA-approved anticancer drug set is available from the NCI Developmental Therapeutics Program. […] The stock solutions were prepared in dimethyl sulfoxide (DMSO, Sigma-Aldrich, St. Louis, MO, cat. D2650) at 800-fold the tested concentration and stored at -70 degrees C prior to their use. All drugs and investigational agents were tested over a range starting from a high concentration at or near the clinical Cmax and decreasing in half-log increments. If the clinical Cmax for an agent had not been determined, the highest concentration tested was 10 microM.
Cell Culture. All cells were maintained in an incubator at 37 degrees C and 5% CO2 with 95% humidity. The PDC lines were cultured according to standard operating procedures established by the NCI PDMR. All PDCs were thawed and cultured in Matrigel-coated flasks prepared with a working solution of 1X Ham's F-12 nutrient mix, without supplementation (Invitrogen, Waltham, MA, cat. 11765054), 100 U/mL penicillin-streptomycin (Invitrogen, cat. 15140122), and 2.5% Matrigel (Corning Inc., Corning, NY, cat. 354248) for the first three passages. The 362531-283-R-J2-PDC and 782815-120-R-J1-PDC lines were cultured in 6C/Colon 1B media, which includes advanced DMEM/F-12 (Thermo Fisher Scientific, cat. 12634028), 10 mM HEPES (Thermo Fisher Scientific, cat. 15630080), 1X GlutaMAX supplement (Thermo Fisher Scientific, cat. 35050061), 0.1 mg/mL primocin (InvivoGen, San Diego, CA, cat. ant-pm-2), 10% defined fetal bovine serum, heat inactivated (HyClone Laboratories Inc., Logan, UT, cat. SH30070.03HI), 50% L-WRN conditioned media (ATCC, cat. CRL-3276), 1.25 mM N-Acetyl-L-cysteine (Sigma-Aldrich, cat. A9165), 10 mM nicotinamide (Sigma-Aldrich, cat. N0636), 1X B-27 supplement (Thermo Fisher Scientific, cat. 17504044), 1X N-2 supplement (Thermo Fisher Scientific, cat. 17502048), 50 ng/mL human EGF (Thermo Fisher Scientific, cat. PHG0311), and 10 microM Y-27632 dihydrochloride (Tocris Bioscience, cat. 1254). The K12877-001-R-J1-PDC line was cultured in 6I media, which includes all 6C/Colon 1B media plus 10 ng/mL human FGF-10 (PeproTech, cat. 100-26), 1 ng/mL human FGF-2 (PeproTech, cat. 100-18B), 1 µM prostaglandin E2 (Tocris Bioscience, cat. 2296), […] hydrocortisone (Sigma-Aldrich, cat. H4001), and […] bovine insulin (Sigma-Aldrich, cat. I6634). The K86415-001-R-J1-PDC line was cultured in 6D media, which includes all 6C/Colon 1B media components minus the L-WRN conditioned media. The 485176-168-R4-J1-PDC was cultured in PANC media, which includes all 6C/Colon 1B media plus 100 ng/mL human FGF-10 (PeproTech, cat. 100-26), 500 nM SB-431542 (Selleckchem, cat. S1067), and 10 nM gastrin (Tocris Bioscience, cat. 3006). […]

[1] = second compound 0.0316 µM, first compound 0.00316 µM
[2] = second compound 0.0316 µM, first compound 0.01 µM
[3] = second compound 0.0316 µM, first compound 0.0316 µM
[4] = second compound 0.0316 µM, first compound 0.1 µM
[5] = second compound 0.0316 µM, first compound 0.316 µM
[6] = second compound 0.0316 µM, first compound 1 µM
[7] = second compound 0.1 µM, first compound 0.00316 µM
[8] = second compound 0.1 µM, first compound 0.01 µM
[9] = second compound 0.1 µM, first compound 0.0316 µM
[10] = second compound 0.1 µM, first compound 0.1 µM
[11] = second compound 0.1 µM, first compound 0.316 µM
[12] = second compound 0.1 µM, first compound 1 µM
[13] = second compound 0.316 µM, first compound 0.00316 µM
[14] = second compound 0.316 µM, first compound 0.01 µM
[15] = second compound 0.316 µM, first compound 0.0316 µM
[16] = second compound 0.316 µM, first compound 0.1 µM
[17] = second compound 0.316 µM, first compound 0.316 µM
[18] = second compound 0.316 µM, first compound 1 µM
[19] = second compound 1 µM, first compound 0.00316 µM
[20] = second compound 1 µM, first compound 0.01 µM
[21] = second compound 1 µM, first compound 0.0316 µM
[22] = second compound 1 µM, first compound 0.1 µM
[23] = second compound 1 µM, first compound 0.316 µM
[24] = second compound 1 µM, first compound 1 µM
[25] = second compound 3.16 µM, first compound 0.00316 µM
[26] = second compound 3.16 µM, first compound 0.01 µM
[27] = second compound 3.16 µM, first compound 0.0316 µM
[28] = second compound 3.16 µM, first compound 0.1 µM
[29] = second compound 3.16 µM, first compound 0.316 µM
[30] = second compound 3.16 µM, first compound 1 µM
[31] = second compound 10 µM, first compound 0.00316 µM
[32] = second compound 10 µM, first compound 0.01 µM
[33] = second compound 10 µM, first compound 0.0316 µM
[34] = second compound 10 µM, first compound 0.1 µM
[35] = second compound 10 µM, first compound 0.316 µM
[36] = second compound 10 µM, first compound 1 µM

With `C=CC(=O)Nc1cc(Nc2nccc(-c3cn(C)c4ccccc34)n2)c(OC)cc1N(C)CCN(C)C` + C#Cc1c(F)ccc2cc(O)cc(-c3ncc4c(N5CC6CCC(C5)N6)nc(OCC56CCCN5CC(F)C6)nc4c3F)c12 the IC50 (second compound 0.0316 µM) was > 1 µM, the IC50 (second compound 0.1 µM) was > 1 µM and the IC50 (second compound 0.316 µM) was > 1 µM. The IC50 (second compound 1 µM) was > 1 µM, the IC50 (second compound 3.16 µM) was 0.0818 µM and the IC50 (second compound 10 µM) was < 0.00316 µM. It also gave a viability, T/C [1] of 101%, a viability, T/C [2] of 128% and a viability, T/C [3] of 101%. The viability, T/C [4] was 99.2%, the viability, T/C [5] was 98.4% and the viability, T/C [6] was 102%. For the same molecule, the viability, T/C [7] was 109%, the viability, T/C [8] was 113% and the viability, T/C [9] was 95.7%. The viability, T/C [10] was 93.6%, the viability, T/C [11] was 101% and the viability, T/C [12] was 112%. For the same molecule, the viability, T/C [13] was 104%, the viability, T/C [14] was 122% and the viability, T/C [15] was 95.5%. The viability, T/C [16] was 90%, the viability, T/C [17] was 89.8% and the viability, T/C [18] was 89.3%. For the same molecule, the viability, T/C [19] was 107%, the viability, T/C [20] was 109% and the viability, T/C [21] was 93%. For the same molecule, the viability, T/C [22] was 86.6%, the viability, T/C [23] was 77.1% and the viability, T/C [24] was 85.3%. For the same molecule, the viability, T/C [25] was 64.5%, the viability, T/C [26] was 64.1% and the viability, T/C [27] was 60.2%. It also gave a viability, T/C [28] of 47.3%, a viability, T/C [29] of 43.5% and a viability, T/C [30] of 52.8%. For the same molecule, the viability, T/C [31] was 41.9%, the viability, T/C [32] was 45.8% and the viability, T/C [33] was 36.1%. For the same molecule, the viability, T/C [34] was 34%, the viability, T/C [35] was 30% and the viability, T/C [36] was 30.1%.
In the case of `CC(Nc1ccc2c(c1)OCCn1cc(N3C(=O)OCC3C(F)F)nc1-2)C(N)=O` (stereo unspecified) + C#Cc1c(F)ccc2cc(O)cc(-c3ncc4c(N5CC6CCC(C5)N6)nc(OCC56CCCN5CC(F)C6)nc4c3F)c12, the IC50 (second compound 0.0316 µM) is reported as > 10 µM, the IC50 (second compound 0.1 µM) is reported as > 10 µM and the IC50 (second compound 0.316 µM) is reported as > 10 µM. For the same molecule, the IC50 (second compound 1 µM) was > 10 µM, the IC50 (second compound 3.16 µM) was 0.207 µM and the IC50 (second compound 10 µM) was < 0.0316 µM. It also gave a viability, T/C [3] of 96.5%, a viability, T/C [4] of 112% and a viability, T/C [5] of 74.5%. It also gave a viability, T/C [6] of 70.5%, a viability, T/C (second compound 0.0316 µM, first compound 3.16 µM) of 62.9% and a viability, T/C (second compound 0.0316 µM, first compound 10 µM) of 74%. The viability, T/C [9] was 108%, the viability, T/C [10] was 119% and the viability, T/C [11] was 77.3%. It also gave a viability, T/C [12] of 69.3%, a viability, T/C (second compound 0.1 µM, first compound 3.16 µM) of 64.9% and a viability, T/C (second compound 0.1 µM, first compound 10 µM) of 71.2%. For the same molecule, the viability, T/C [15] was 107%, the viability, T/C [16] was 107% and the viability, T/C [17] was 66.2%. It also gave a viability, T/C [18] of 66.8%, a viability, T/C (second compound 0.316 µM, first compound 3.16 µM) of 63.7% and a viability, T/C (second compound 0.316 µM, first compound 10 µM) of 60.9%. For the same molecule, the viability, T/C [21] was 98.8%, the viability, T/C [22] was 86.5% and the viability, T/C [23] was 60.8%. For the same molecule, the viability, T/C [24] was 54%, the viability, T/C (second compound 1 µM, first compound 3.16 µM) was 49.5% and the viability, T/C (second compound 1 µM, first compound 10 µM) was 63.8%. The viability, T/C [27] was 61.2%, the viability, T/C [28] was 63.6% and the viability, T/C [29] was 39.8%. The viability, T/C [30] was 40.4%, the viability, T/C (second compound 3.16 µM, first compound 3.16 µM) was 43.1% and the viability, T/C (second compound 3.16 µM, first compound 10 µM) was 48.1%. The viability, T/C [33] was 36.6%, the viability, T/C [34] was 38.7% and the viability, T/C [35] was 27.5%. It also gave a viability, T/C [36] of 23.4%, a viability, T/C (second compound 10 µM, first compound 3.16 µM) of 30.8% and a viability, T/C (second compound 10 µM, first compound 10 µM) of 24.2%.
Molecule `O=C(c1ccc(F)c(F)c1Nc1ccc(I)cc1F)N1CC(O)([C@@H]2CCCCN2)C1` + C#Cc1c(F)ccc2cc(O)cc(-c3ncc4c(N5CC6CCC(C5)N6)nc(OCC56CCCN5CC(F)C6)nc4c3F)c12 has an IC50 (second compound 0.0316 µM) of 0.0826 µM, an IC50 (second compound 0.1 µM) of 0.0773 µM and an IC50 (second compound 0.316 µM) of 0.0732 µM. The IC50 (second compound 1 µM) was 0.0683 µM, the IC50 (second compound 3.16 µM) was 0.0154 µM and the IC50 (second compound 10 µM) was < 0.00316 µM. For the same molecule, the viability, T/C [1] was 108%, the viability, T/C [2] was 105% and the viability, T/C [3] was 70.8%. It also gave a viability, T/C [4] of 44.1%, a viability, T/C [5] of 35.9% and a viability, T/C [6] of 19.1%. The viability, T/C [7] was 103%, the viability, T/C [8] was 103% and the viability, T/C [9] was 65.1%. The viability, T/C [10] was 47.1%, the viability, T/C [11] was 30.9% and the viability, T/C [12] was 21.6%. The viability, T/C [13] was 99.8%, the viability, T/C [14] was 112% and the viability, T/C [15] was 72.6%. The viability, T/C [16] was 42.5%, the viability, T/C [17] was 31.1% and the viability, T/C [18] was 20.4%. It also gave a viability, T/C [19] of 91.2%, a viability, T/C [20] of 95.8% and a viability, T/C [21] of 60.4%. The viability, T/C [22] was 43.8%, the viability, T/C [23] was 34.4% and the viability, T/C [24] was 21.1%. For the same molecule, the viability, T/C [25] was 56.3%, the viability, T/C [26] was 58.7% and the viability, T/C [27] was 42.4%. It also gave a viability, T/C [28] of 40%, a viability, T/C [29] of 30.3% and a viability, T/C [30] of 17%. It also gave a viability, T/C [31] of 36.5%, a viability, T/C [32] of 38.3% and a viability, T/C [33] of 31.6%. For the same molecule, the viability, T/C [34] was 31.9%, the viability, T/C [35] was 22.1% and the viability, T/C [36] was 12.3%.
